Tests used:
Assay in all cases: relative viability (nuclei count vs DMSO), 5 days (fraction); higher = more cells survive
NVP-TAE684 + Lapatinib = compound: COc1cc(N2CCC(N3CCN(C)CC3)CC2)ccc1Nc1ncc(Cl)c(Nc2ccccc2S(=O)(=O)C(C)C)n1 [NVP-TAE684] + CS(=O)(=O)CCNCc1ccc(-c2ccc3ncnc(Nc4ccc(OCc5cccc(F)c5)c(Cl)c4)c3c2)o1 [Lapatinib] (partner 2 µM)
In short: (§1)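 After 5 days of treatment, lung cancer cells in 1536-well plates were fixed and stained in a single step (final 0.05% Triton X-100, 1% formaldehyde, 1 ug/ml Hoechst) and their nuclei counted on 4× images. Treatment had been applied by pin tool the day after seeding as one drug alone or as a fixed anchor-drug dose with five library-drug doses (not always all listed) in √10 steps. Relative viability is the nuclei count of treated wells divided by that of vehicle wells, and values are medians of duplicate plates.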

[1] = compound: C1=CC=C2C(=C1)N=C(S2)C(C#N)C3=NC(=NC=C3)NCCC4=CN=CC=C4 + CC(=O)c1c(C)c2cnc(Nc3ccc(N4CCNCC4)cn3)nc2n(C2CCCC2)c1=O [Palbociclib] (partner 0.5 µM)
In short: as §1

CUDC-101 + Linsitinib = compound: C#Cc1cccc(Nc2ncnc3cc(OC)c(OCCCCCCC(=O)NO)cc23)c1 [CUDC-101] + C[C@]1(O)C[C@@H](c2nc(-c3ccc4ccc(-c5ccccc5)nc4c3)c3c(N)nccn32)C1 [Linsitinib] (partner 1 µM)
In short: as §1

CUDC-101 + Crizotinib = compound: C#Cc1cccc(Nc2ncnc3cc(OC)c(OCCCCCCC(=O)NO)cc23)c1 [CUDC-101] + C[C@@H](Oc1cc(-c2cnn(C3CCNCC3)c2)cnc1N)c1c(Cl)ccc(F)c1Cl [Crizotinib] (partner 1 µM)
In short: as §1

Cell Line	relative viability (NVP-TAE684 + Lapatinib; first compound 0.2 µM)	relative viability (NVP-TAE684 + Lapatinib; first compound 0.6325 µM)	relative viability (NVP-TAE684 + Lapatinib; first compound 2 µM)	relative viability ([1]; first compound 0.005 µM)	relative viability ([1]; first compound 0.01581 µM)	relative viability ([1]; first compound 0.05 µM)	relative viability ([1]; first compound 0.1581 µM)	relative viability ([1]; first compound 0.5 µM)	relative viability (CUDC-101 + Linsitinib; first compound 0.01 µM)	relative viability (CUDC-101 + Linsitinib; first compound 0.03162 µM)	relative viability (CUDC-101 + Linsitinib; first compound 0.1 µM)	relative viability (CUDC-101 + Linsitinib; first compound 0.3162 µM)	relative viability (CUDC-101 + Linsitinib; first compound 1 µM)	relative viability (CUDC-101 + Crizotinib; first compound 0.01 µM)	relative viability (CUDC-101 + Crizotinib; first compound 0.03162 µM)	relative viability (CUDC-101 + Crizotinib; first compound 0.1 µM)	relative viability (CUDC-101 + Crizotinib; first compound 0.3162 µM)	relative viability (CUDC-101 + Crizotinib; first compound 1 µM)
NCI-H2126	0.755	0.719	0.55	0.299	0.363	0.365	0.347	0.354	0.742	0.646	0.733	0.648	0.586	1.07	1.08	1.01	1.01	0.866
LU99A		0.974	0.543	0.398	0.41		0.47	0.39	0.565	0.484	0.482	0.54	0.242	0.516	0.585	0.458	0.45	0.256
NCI-H650		0.776	0.706	0.321	0.336	0.301	0.321	0.323	0.992	0.876	1.04	0.662	0.688	0.835	0.783	0.771	0.532	0.454
LXF-289	0.946		0.861	0.46	0.6	0.612	0.625	0.503	0.989	1.04	0.979	0.992	0.781	0.804	0.835	0.828	0.736	0.577
CAL-12T	0.666	0.471	0.305	0.422	0.327	0.429	0.673	0.41	0.914	0.7	0.777	0.924	0.656	0.67	0.734	0.689	0.701	0.584
SK-MES-1	0.539	0.453	0.472	0.311	0.292	0.315	0.334	0.288	1.17	1.13	1.05	1.1	0.742	1.06	1	1.02	1.04	0.945
SW 1573	1.16	1.12	1.13	0.306	0.325	0.389	0.478	0.299	0.867	0.919	0.915	0.955	0.637	0.805	0.804	0.927	1.09	0.423
NCI-H1975	0.734	0.791	0.318	0.565	0.538	0.656	0.832	0.408	1.1	0.881	1.01	0.888	0.905	1.05	1.02	0.964	1.1	0.872
NCI-H647	1.34	1.02	0.686	0.376	0.407	0.372	0.378	0.442	1.23	1.03	1.18	1.1	1.12	1.27	1.03	1.09	0.909	0.533
NCI-H322M	0.637	0.609	0.404	0.427	0.501	0.484	0.476	0.488	0.882	0.76	0.741	0.803	0.737	0.958	0.903	0.774	0.748	0.538
